# Laboratory results published in US12642791B2, “Inhibitors of lysyl oxidases” (UNIVERSITY OF SOUTH CAROLINA, priority 2021, dated 2026).
# Where two headings read alike, the source gives them in different places.
# Tests used:
# [1] = biological target: T1, MAO-A (Homo sapiens, UniProt P21397); assay: MAO-GLO assay; type: biochemical; conditions: cell-free enzymatic activity assay
# T1 construct: purchased Active Motif, USA
# T1 sequence (P21397 1-527): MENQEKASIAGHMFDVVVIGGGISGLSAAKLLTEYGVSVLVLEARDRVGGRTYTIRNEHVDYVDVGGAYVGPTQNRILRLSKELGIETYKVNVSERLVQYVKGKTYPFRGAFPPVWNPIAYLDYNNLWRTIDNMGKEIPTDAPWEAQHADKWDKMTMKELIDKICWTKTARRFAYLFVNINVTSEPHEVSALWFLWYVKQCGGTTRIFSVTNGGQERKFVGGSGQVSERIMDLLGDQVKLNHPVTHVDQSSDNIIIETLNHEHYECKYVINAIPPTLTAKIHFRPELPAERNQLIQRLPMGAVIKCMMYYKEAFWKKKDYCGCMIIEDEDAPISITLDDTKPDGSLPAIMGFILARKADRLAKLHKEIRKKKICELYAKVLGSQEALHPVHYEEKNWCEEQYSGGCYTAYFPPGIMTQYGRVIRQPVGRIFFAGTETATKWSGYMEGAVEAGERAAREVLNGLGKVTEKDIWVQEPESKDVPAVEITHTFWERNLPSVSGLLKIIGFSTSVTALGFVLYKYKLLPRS
# Procedure: (§1) MAO-GLO assay (Promega, USA) was used to measure the MAO-A and MAO-B activity upon LOX inhibitor treatment according to the manufacturer's instructions. For the enzyme activity, substrate was used at a concentration of 160 μM and 16 μM for MAO-A and MAO-B, respectively. MAO-A and MAO-B enzymes (Active Motif, USA) were used in 0.2 μg/per well. Reaction mix, enzymes, and drugs (30, 10, 3, 1, 0.3, and 0.1 nM) were mixed and incubated for 3 hours at RT. Then, 50 μl of luciferin was added into wells and incubated for 20 min at RT. Luciferase signals were measured by using a multimode reader.
# [2] = biological target: T2, MAO-B (Homo sapiens, UniProt P27338); assay: MAO-GLO assay; type: biochemical; conditions: cell-free enzymatic activity assay
# T2 construct: purchased Active Motif, USA
# T2 sequence (P27338 1-520): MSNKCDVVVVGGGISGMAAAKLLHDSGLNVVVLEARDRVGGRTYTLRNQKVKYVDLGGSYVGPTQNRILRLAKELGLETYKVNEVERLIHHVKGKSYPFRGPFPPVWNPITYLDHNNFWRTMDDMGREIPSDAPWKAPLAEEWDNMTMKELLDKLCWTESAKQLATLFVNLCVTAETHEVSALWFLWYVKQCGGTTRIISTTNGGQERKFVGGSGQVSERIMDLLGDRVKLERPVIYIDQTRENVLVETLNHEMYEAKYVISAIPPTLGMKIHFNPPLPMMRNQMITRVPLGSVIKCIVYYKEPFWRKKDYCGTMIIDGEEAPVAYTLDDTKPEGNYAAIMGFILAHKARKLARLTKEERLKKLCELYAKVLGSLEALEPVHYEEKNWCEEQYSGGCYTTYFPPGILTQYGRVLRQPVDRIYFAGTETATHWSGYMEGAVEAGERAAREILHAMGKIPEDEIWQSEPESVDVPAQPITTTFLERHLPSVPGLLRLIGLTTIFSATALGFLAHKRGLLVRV
# Procedure: as §1
# [3] = test system: MDA-MB-231 cells embedded in collagen I; assay: ECM crosslinking by collagen and fibronectin immunofluorescence staining; type: cell-based, human
# Procedure: FIG. 31. […] A. Inhibition of LOX activity in MDA-MB-231 cells treated with 5 μM of the LOX inhibitors. B. Doxorubicin sensitization with 6232 and its analogs, 6403 and 6415, in 3D collagen-I culture. C. Collagen and fibronectin staining of vehicle or 6232 or 6403 or 6415-treated MDA-MB-231 cells embedded in collagen I. BAPN is used as a positive control.
# Immunofluorescence staining of cells was done in μ-Slide 8-well glass bottom chambers (Ibidi, Germany). Cells were fixed with 4% paraformaldehyde for 20 min, permeabilized with 0.5% Triton X-100 for 10 min and blocked in 5% BSA-PBS. Samples were incubated with primary (Collagen I, Fibronectin, F-actin, a-SMA) and secondary Alexa Fluor 647 or 488-labeled antibodies for 1.5 hours at room temperature. Cells were also counterstained with DAPI for 5 min. Images were acquired using ZEN 2012 SP5 (Black) LSM 700 (Carl Zeiss, DE).
# [4] = test system: cellular LOX activity, Caki-1; assay: Cell-based LOX activity in kidney cancer cell line; design: species or system human
# Procedure: FIG. 39. Inhibition of cellular LOX activity in pancreatic and kidney cancer cell lines. Inhibition of cellular LOX activity upon the treatment with BAPN, 6232, 6403 and 6415 in kidney cell line Caki-1 (A) and pancreatic cancer cell lines Mia-Paca-2 (B) and PANC1 (C).
# (§2) For cell-based lysyl oxidase activity, fluorometric Lysly Oxidase Activity Assay Kit (Abcam, USA) was used according to manufacturer's instructions. Briefly, after the treatment, 50 μl of supernatant from each well was incubated with reagent mix and fluorescence measured in multimode-reader at Ex/Em=540/590 nm wavelength.
# [5] = test system: cellular lysyl oxidase (LOX) activity, MDA-MB-231 cells; assay: Cell-based lysyl oxidase activity assay (Abcam kit); design: species or system human
# Source text: As the available LOX inhibitors are either not very potent or have toxicity, the inventors developed a robust screening pipeline shown in FIG. 28 to identify potent and safe LOX-specific and pan-LOX inhibitors. Briefly, a high-throughput cell-based LOX activity (Abcam) screen (HTS) was done for more than 5,000 drug-like compounds from the EXPRESS-Pick diversified library (4,480 molecules, ChemBridge) and Tocriscreen library of bioactive compounds (1,280 compounds, Tocris), each at a single concentration of 10 μM. […] The toxic molecules were counter screened with cell cytotoxicity assay and filtered out.
# FIGS. 34. […] IC50 for cellular lysyl oxidase activity upon treatment of MDA-MB-231 cells with different LOX inhibitors. uM=microM.
# as §2
# [6] = test system: ACHN kidney cancer cell line; assay: Growth inhibition in 3D collagen:matrigel culture (3D Cell Titer Glo); type: cell-based, human; conditions: collagen:matrigel (1:1), uM range
# Procedure: FIG. 38. Dose dependent inhibition of cellular LOX activity and growth inhibition in 3D upon treatment with 6232 and its analogs, 6403 and 6415.in ACHN cancer cell line. Inhibition of cell-based LOX activity in ACHN (A) and growth inhibition in collagen:matrigel (1:1) culture (B) cancer cell lines upon treatment with LOX inhibitors 6232, 6403 and 6415 (uM range). BAPN is used as a positive control (mM range) in 3D cell viability assay. Growth inhibition was measured by using 3D Cell Titer Glo kit.
# Collagen solution was prepared at a concentration of 0.5-1 mg/ml from the rat tail collagen I (Corning, USA) with a neutralization step including the addition of 1N NaOH solution. Cells were trypsinazed and resuspended in collagen:matrigel mix (1:1). 8×10^3 cells were seeded into 96-well or μ-Slide 8-well glass bottom chambers. After 1 hour of incubation at room temperature, media was added on top of the solidified collagen:matrigel mix. Drug treatments were done 12 hours after cell seeding.
# [7] = read-out: cellular LOX activity
SMILES,MAO-A activity inhibition [1],MAO-B activity inhibition [2],ECM crosslinking (collagen and fibronectin staining) [3],cellular LOX activity [4],cellular lysyl oxidase inhibition compared to BAPN [5],cell viability in 3D culture [6],IC50 ([5]; read-out: IC50 for cellular lysyl oxidase inhibition) [µM],"IC50 [5, 7] [µM]"
"Cc1nc(N)sc1-c1csc(Nc2ccc([N+](=O)[O-])cc2)n1 [compound 6232, 4-methyl-5-[2-(4-nitroanilino)thiazol-4-yl]thiazol-2-amine]",did not inhibit,did not inhibit,decrease in ECM crosslinking,inhibited cellular LOX activity,more potent,decrease in cell viability in 3D culture,–,–
"CC(=O)Nc1ccc(Nc2nc(-c3sc(N)nc3C)cs2)cc1 [compound 6403, N-[4-[[4-(2-amino-4-methyl-thiazol-5-yl)thiazol-2-yl]amino]phenyl]acetamide]",did not inhibit,did not inhibit,decrease in ECM crosslinking,inhibited cellular LOX activity,more potent,decrease in cell viability in 3D culture,1.3,1.3
"Cc1nc(N)sc1-c1csc(N(C)c2ccc(O)cc2)n1 [compound 6415, 4-[[4-(2-amino-4-methyl-thiazol-5-yl)thiazol-2-yl]-methyl-amino]phenol]",did not inhibit,did not inhibit,decrease in ECM crosslinking,inhibited cellular LOX activity,more potent,decrease in cell viability in 3D culture,–,3.5
